Measurements: PubChem BioAssay AID248 (DTP/NCI, 2004)
Where “and” joins values, the source holds several entries; their conditions need not be identical. Equal values may be shown once. Toxic doses and inconclusive results are not listed. Cut-off read from the data, not from the text of the source: active = T/C of 150% or more; inactive = T/C below 125%.

System: L1210 leukemia ip in BDF1 mice, survival T/C
Assay: NCI In Vivo Anticancer Drug Screen. Data for tumor model L1210 Leukemia (intraperitoneal) in B6D2F1 (BDF1) mice
Settings: higher = longer survival
In short: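 Transplanted-tumor mice were given test agent; controls received vehicle only. Survival readings from the two groups were divided (treated over control).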

Measured: T/C

N=C(N)SCc1c2ccccc2c(CSC(=N)N)c2ccccc12
inactive: endpoint: mean survival time, dose: 0.1 mg/kg/injection, schedule: Q07DX002 (ip), vehicle: saline 97 % of control | endpoint: mean survival time, dose: 0.11 mg/kg/injection, schedule: Q01DX Z (ip), vehicle: saline 110 % of control | endpoint: mean survival time, dose: 0.2 mg/kg/injection, schedule: Q01DX Z (ip), vehicle: carboxymethylcellulose (CMC) 113 % of control | endpoint: mean survival time, dose: 0.2 mg/kg/injection, schedule: Q07DX002 (ip), vehicle: saline 103 % of control | endpoint: mean survival time, dose: 0.3 mg/kg/injection, schedule: Q01DX Z (ip), vehicle: carboxymethylcellulose (CMC) 110 % of control | endpoint: mean survival time, dose: 0.3 mg/kg/injection, schedule: Q03HX008 (ip), vehicle: other 113 % of control | endpoint: mean survival time, dose: 0.37 mg/kg/injection, schedule: Q01DX Z (ip), vehicle: carboxymethylcellulose (CMC) 103 % of control | endpoint: mean survival time, dose: 0.39 mg/kg/injection, schedule: Q07DX002 (ip), vehicle: saline 92 % of control | endpoint: mean survival time, dose: 0.62 mg/kg/injection, schedule: Q#A X Z (ip), vehicle: carboxymethylcellulose (CMC) 111 % of control | endpoint: mean survival time, dose: 0.63 mg/kg/injection, schedule: Q01DX Z (im), vehicle: carboxymethylcellulose (CMC) 112 % of control | endpoint: mean survival time, dose: 0.63 mg/kg/injection, schedule: Q01DX Z (sc), vehicle: carboxymethylcellulose (CMC) 106 % of control | endpoint: mean survival time, dose: 0.75 mg/kg/injection, schedule: Q01DX Z (im), vehicle: carboxymethylcellulose (CMC) 106 % of control | endpoint: mean survival time, dose: 0.78 mg/kg/injection, schedule: Q07DX002 (ip), vehicle: saline 110 % of control | endpoint: mean survival time, dose: 1.25 mg/kg/injection, schedule: Q01DX009 (sc), vehicle: carboxymethylcellulose (CMC) 92 % of control | endpoint: mean survival time, dose: 1.25 mg/kg/injection, schedule: Q01DX Z (sc), vehicle: carboxymethylcellulose (CMC) 103 % of control and 112 % of control | endpoint: mean survival time, dose: 1.5 mg/kg/injection, schedule: Q01DX Z (ip), vehicle: saline 112 % of control | endpoint: mean survival time, dose: 2.5 mg/kg/injection, schedule: Q01DX009 (sc), vehicle: carboxymethylcellulose (CMC) 92 % of control | endpoint: mean survival time, dose: 2.5 mg/kg/injection, schedule: Q01DX Z (sc), vehicle: carboxymethylcellulose (CMC) 106 % of control and 113 % of control | endpoint: mean survival time, dose: 3.12 mg/kg/injection, schedule: Q01DX Z (im), vehicle: carboxymethylcellulose (CMC) 112 % of control | endpoint: mean survival time, dose: 3.12 mg/kg/injection, schedule: Q01DX Z (ip), vehicle: carboxymethylcellulose (CMC) 112 % of control | endpoint: mean survival time, dose: 5.0 mg/kg/injection, schedule: Q01DX006 (iv), vehicle: carboxymethylcellulose (CMC) 108 % of control | endpoint: mean survival time, dose: 5.0 mg/kg/injection, schedule: Q01DX009 (sc), vehicle: carboxymethylcellulose (CMC) 92 % of control | endpoint: mean survival time, dose: 5.0 mg/kg/injection, schedule: Q01DX Z (im), vehicle: carboxymethylcellulose (CMC) 113 % of control | endpoint: mean survival time, dose: 10.0 mg/kg/injection, schedule: Q01DX006 (iv), vehicle: carboxymethylcellulose (CMC) 96 % of control and 111 % of control | endpoint: mean survival time, dose: 10.0 mg/kg/injection, schedule: Q01DX009 (sc), vehicle: carboxymethylcellulose (CMC) 98 % of control | endpoint: mean survival time, dose: 10.0 mg/kg/injection, schedule: Q01DX Z (oral), vehicle: carboxymethylcellulose (CMC) 108 % of control | endpoint: mean survival time, dose: 10.0 mg/kg/injection, schedule: Q01DX Z (sc), vehicle: carboxymethylcellulose (CMC) 108 % of control | endpoint: mean survival time, dose: 12.5 mg/kg/injection, schedule: Q01DX Z (im), vehicle: carboxymethylcellulose (CMC) 110 % of control | endpoint: mean survival time, dose: 12.5 mg/kg/injection, schedule: Q03HX008 (ip), vehicle: carboxymethylcellulose (CMC) 107 % of control | endpoint: mean survival time, dose: 17.0 mg/kg/injection, schedule: Q01DX001 (ip), vehicle: carboxymethylcellulose (CMC) 111 % of control | endpoint: mean survival time, dose: 20.0 mg/kg/injection, schedule: Q01DX001 (sc), vehicle: carboxymethylcellulose (CMC) 98 % of control | endpoint: mean survival time, dose: 20.0 mg/kg/injection, schedule: Q01DX006 (iv), vehicle: carboxymethylcellulose (CMC) 112 % of control | endpoint: mean survival time, dose: 20.0 mg/kg/injection, schedule: Q01DX009 (sc), vehicle: carboxymethylcellulose (CMC) 95 % of control and 100 % of control | endpoint: mean survival time, dose: 20.0 mg/kg/injection, schedule: Q01DX Z (im), vehicle: carboxymethylcellulose (CMC) 106 % of control | endpoint: mean survival time, dose: 20.0 mg/kg/injection, schedule: Q01DX Z (oral), vehicle: carboxymethylcellulose (CMC) 111 % of control | endpoint: mean survival time, dose: 20.0 mg/kg/injection, schedule: Q01DX Z (sc), vehicle: carboxymethylcellulose (CMC) 106 % of control and 109 % of control | endpoint: mean survival time, dose: 25.0 mg/kg/injection, schedule: Q01DX017 (ip), vehicle: carboxymethylcellulose (CMC) 102 % of control | endpoint: mean survival time, dose: 25.0 mg/kg/injection, schedule: Q03HX040 (ip), vehicle: carboxymethylcellulose (CMC) 100 % of control | endpoint: mean survival time, dose: 30.0 mg/kg/injection, schedule: Q01DX009 (sc), vehicle: carboxymethylcellulose (CMC) 100 % of control | endpoint: mean survival time, dose: 32.0 mg/kg/injection, schedule: Q03HX024 (ip), vehicle: carboxymethylcellulose (CMC) 97 % of control | endpoint: mean survival time, dose: 32.0 mg/kg/injection, schedule: Q03HX024 (ip), vehicle: other 101 % of control | endpoint: mean survival time, dose: 40.0 mg/kg/injection, schedule: Q01DX001 (sc), vehicle: carboxymethylcellulose (CMC) 104 % of control | endpoint: mean survival time, dose: 41.0 mg/kg/injection, schedule: Q01DX Z (ip), vehicle: saline 105 % of control | endpoint: mean survival time, dose: 44.0 mg/kg/injection, schedule: Q01DX009 (sc), vehicle: carboxymethylcellulose (CMC) 101 % of control | endpoint: mean survival time, dose: 48.0 mg/kg/injection, schedule: Q01DX Z (ip), vehicle: carboxymethylcellulose (CMC) 101 % of control | endpoint: mean survival time, dose: 50.0 mg/kg/injection, schedule: Q03HX008 (ip), vehicle: carboxymethylcellulose (CMC) 113 % of control | endpoint: mean survival time, dose: 50.0 mg/kg/injection, schedule: Q03HX016 (ip), vehicle: carboxymethylcellulose (CMC) 94 % of control | endpoint: mean survival time, dose: 50.0 mg/kg/injection, schedule: Q03HX024 (ip), vehicle: carboxymethylcellulose (CMC) 102 % of control | endpoint: mean survival time, dose: 61.5 mg/kg/injection, schedule: Q01DX Z (ip), vehicle: saline 92 % of control | endpoint: mean survival time, dose: 66.0 mg/kg/injection, schedule: Q01DX009 (sc), vehicle: carboxymethylcellulose (CMC) 102 % of control | endpoint: mean survival time, dose: 80.0 mg/kg/injection, schedule: Q01DX001 (sc), vehicle: carboxymethylcellulose (CMC) 103 % of control | endpoint: mean survival time, dose: 80.0 mg/kg/injection, schedule: Q01DX Z (oral), vehicle: carboxymethylcellulose (CMC) 105 % of control and 106 % of control | endpoint: mean survival time, dose: 100.0 mg/kg/injection, schedule: Q01DX009 (ip), vehicle: saline 92 % of control | endpoint: mean survival time, dose: 100.0 mg/kg/injection, schedule: Q01DX009 (sc), vehicle: carboxymethylcellulose (CMC) 107 % of control | endpoint: mean survival time, dose: 100.0 mg/kg/injection, schedule: Q06HX004 (ip), vehicle: carboxymethylcellulose (CMC) 93 % of control | endpoint: mean survival time, dose: 100.0 mg/kg/injection, schedule: Q08DX003 (ip), vehicle: carboxymethylcellulose (CMC) 108 % of control | endpoint: mean survival time, dose: 160.0 mg/kg/injection, schedule: Q01DX001 (sc), vehicle: carboxymethylcellulose (CMC) 103 % of control | endpoint: mean survival time, dose: 200.0 mg/kg/injection, schedule: Q01DX009 (ip), vehicle: carboxymethylcellulose (CMC) 113 % of control | endpoint: mean survival time, dose: 200.0 mg/kg/injection, schedule: Q01DX017 (ip), vehicle: carboxymethylcellulose (CMC) 105 % of control | endpoint: mean survival time, dose: 200.0 mg/kg/injection, schedule: Q01DX Z (im), vehicle: carboxymethylcellulose (CMC) 112 % of control | endpoint: mean survival time, dose: 200.0 mg/kg/injection, schedule: Q08DX002 (ip), vehicle: carboxymethylcellulose (CMC) 113 % of control | endpoint: mean survival time, dose: 200.0 mg/kg/injection, schedule: Q08DX003 (ip), vehicle: carboxymethylcellulose (CMC) 104 % of control | endpoint: mean survival time, dose: 200.0 mg/kg/injection, schedule: Q#A X002 (ip), vehicle: saline 111 % of control | endpoint: mean survival time, dose: 266.0 mg/kg/injection, schedule: Q01DX001 (sc), vehicle: carboxymethylcellulose (CMC) 103 % of control | endpoint: mean survival time, dose: 300.0 mg/kg/injection, schedule: Q03DX Z (ip), vehicle: saline 113 % of control | endpoint: mean survival time, dose: 320.0 mg/kg/injection, schedule: Q01DX001 (sc), vehicle: carboxymethylcellulose (CMC) 103 % of control | endpoint: mean survival time, dose: 320.0 mg/kg/injection, schedule: Q01DX Z (oral), vehicle: carboxymethylcellulose (CMC) 112 % of control | endpoint: mean survival time, dose: 400.0 mg/kg/injection, schedule: Q01DX001 (oral), vehicle: carboxymethylcellulose (CMC) 106 % of control | endpoint: mean survival time, dose: 400.0 mg/kg/injection, schedule: Q01DX001 (sc), vehicle: carboxymethylcellulose (CMC) 102 % of control | endpoint: mean survival time, dose: 400.0 mg/kg/injection, schedule: Q04DX005 (ip), vehicle: carboxymethylcellulose (CMC) 97 % of control | endpoint: mean survival time, dose: 400.0 mg/kg/injection, schedule: Q07DX Z (ip), vehicle: saline 102 % of control | endpoint: mean survival time, dose: 400.0 mg/kg/injection, schedule: Q08DX002 (ip), vehicle: saline 97 % of control | endpoint: mean survival time, dose: 600.0 mg/kg/injection, schedule: Q01DX001 (sc), vehicle: carboxymethylcellulose (CMC) 98 % of control | endpoint: mean survival time, dose: 640.0 mg/kg/injection, schedule: Q01DX Z (oral), vehicle: carboxymethylcellulose (CMC) 112 % of control | endpoint: mean survival time, dose: 800.0 mg/kg/injection, schedule: Q01DX001 (oral), vehicle: carboxymethylcellulose (CMC) 105 % of control | endpoint: mean survival time, dose: 800.0 mg/kg/injection, schedule: Q08DX002 (ip), vehicle: carboxymethylcellulose (CMC) 109 % of control and 111 % of control | endpoint: mean survival time, dose: 800.0 mg/kg/injection, schedule: Q08DX003 (ip), vehicle: carboxymethylcellulose (CMC) 107 % of control | endpoint: mean survival time, dose: 900.0 mg/kg/injection, schedule: Q01DX001 (sc), vehicle: carboxymethylcellulose (CMC) 112 % of control | endpoint: mean survival time, dose: 1200.0 mg/kg/injection, schedule: Q01DX001 (oral), vehicle: carboxymethylcellulose (CMC) 97 % of control | endpoint: mean survival time, dose: 1280.0 mg/kg/injection, schedule: Q01DX Z (oral), vehicle: carboxymethylcellulose (CMC) 101 % of control | endpoint: mean survival time, dose: 1340.0 mg/kg/injection, schedule: Q01DX001 (oral), vehicle: carboxymethylcellulose (CMC) 107 % of control | endpoint: mean survival time, dose: 1600.0 mg/kg/injection, schedule: Q01DX001 (oral), vehicle: carboxymethylcellulose (CMC) 100 % of control | endpoint: mean survival time, dose: 2000.0 mg/kg/injection, schedule: Q01DX001 (oral), vehicle: carboxymethylcellulose (CMC) 112 % of control | endpoint: mean survival time, dose: 3000.0 mg/kg/injection, schedule: Q01DX001 (oral), vehicle: carboxymethylcellulose (CMC) 101 % of control | endpoint: median survival time, dose: 50.0 mg/kg/injection, schedule: Q04DX003 (ip), vehicle: steriod suspending solution 111 % of control | endpoint: median survival time, dose: 100.0 mg/kg/injection, schedule: Q01DX009 (ip), vehicle: steriod suspending solution 94 % of control | endpoint: median survival time, dose: 100.0 mg/kg/injection, schedule: Q04DX003 (ip), vehicle: steriod suspending solution 111 % of control | endpoint: median survival time, dose: 125.0 mg/kg/injection, schedule: Q01DX001 (sc), vehicle: steriod suspending solution 100 % of control | endpoint: median survival time, dose: 250.0 mg/kg/injection, schedule: Q01DX001 (sc), vehicle: steriod suspending solution 111 % of control | endpoint: median survival time, dose: 400.0 mg/kg/injection, schedule: Q04DX003 (sc), vehicle: steriod suspending solution 111 % of control | endpoint: median survival time, dose: 500.0 mg/kg/injection, schedule: Q01DX001 (sc), vehicle: steriod suspending solution 100 % of control | endpoint: median survival time, dose: 800.0 mg/kg/injection, schedule: Q04DX003 (sc), vehicle: steriod suspending solution 111 % of control | endpoint: median survival time, dose: 1000.0 mg/kg/injection, schedule: Q01DX001 (sc), vehicle: steriod suspending solution 105 % of control
